“And” between values parts separate entries of the source, which are not always exact repeats. Equal values may be shown once.
How the values were obtained:
full-length human ERα = biological target: T1, full-length human ERα (Homo sapiens, UniProt P03372); type: cell-based; details: for Agonist mode ERα (% E2): HepG2 cells, average efficacy (mean ± s.e.m.) as percentage of 10^−5 M 17β-estradiol
T1 sequence (P03372 1-595): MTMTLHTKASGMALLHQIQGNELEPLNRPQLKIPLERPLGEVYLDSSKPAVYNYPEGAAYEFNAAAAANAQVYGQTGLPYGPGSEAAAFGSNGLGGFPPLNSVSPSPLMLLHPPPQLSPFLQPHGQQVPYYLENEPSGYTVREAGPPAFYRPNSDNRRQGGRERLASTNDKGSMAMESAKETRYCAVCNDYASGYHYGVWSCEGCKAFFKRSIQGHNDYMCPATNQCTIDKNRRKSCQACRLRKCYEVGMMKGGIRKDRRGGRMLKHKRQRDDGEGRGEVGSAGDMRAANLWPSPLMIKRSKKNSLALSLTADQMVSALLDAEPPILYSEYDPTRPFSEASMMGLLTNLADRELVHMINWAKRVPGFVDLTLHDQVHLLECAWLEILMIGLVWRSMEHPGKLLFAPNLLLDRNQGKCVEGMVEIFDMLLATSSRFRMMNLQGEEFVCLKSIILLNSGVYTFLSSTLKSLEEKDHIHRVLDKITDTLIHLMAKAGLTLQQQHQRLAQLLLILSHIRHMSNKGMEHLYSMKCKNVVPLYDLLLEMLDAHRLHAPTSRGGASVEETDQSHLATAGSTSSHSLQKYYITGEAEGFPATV

full-length human ERβ [1] = biological target: T2, full-length human ERβ (Homo sapiens, UniProt Q92731); type: cell-based; details: HepG2 cells; average efficacy (mean ± s.e.m.) as percentage of 10^−5 M 17β-estradiol
[2] = biological target: purified full-length human ERβ (Homo sapiens, UniProt Q92731); details: IC50 estradiol/IC50 compound ×100, estradiol = 100%; ± range or SD, n = 2–3; 10 nM [3H]estradiol, 18–24 h at 0 °C
ERα+ MCF-7 cells = details: for Agonist mode MCF-7 (% E2): ERα+ MCF-7 cells with ERE reporter, average efficacy (mean ± s.e.m.) as percentage of 10^−5 M 17β-estradiol
[3] = biological target: T3, purified full-length human ERα (Homo sapiens, UniProt P03372); details: for Relative binding affinity (RBA) ERα: IC50 estradiol/IC50 compound ×100, estradiol = 100%, ± range or SD, n = 2–3, 10 nM [3H]estradiol, 18–24 h at 0 °C
T3 sequence (P03372 1-595): T1 sequence (P03372 1-595)

full-length human ERβ [4] = biological target: T2, full-length human ERβ; type: cell-based

T2 sequence (Q92731 whole entry): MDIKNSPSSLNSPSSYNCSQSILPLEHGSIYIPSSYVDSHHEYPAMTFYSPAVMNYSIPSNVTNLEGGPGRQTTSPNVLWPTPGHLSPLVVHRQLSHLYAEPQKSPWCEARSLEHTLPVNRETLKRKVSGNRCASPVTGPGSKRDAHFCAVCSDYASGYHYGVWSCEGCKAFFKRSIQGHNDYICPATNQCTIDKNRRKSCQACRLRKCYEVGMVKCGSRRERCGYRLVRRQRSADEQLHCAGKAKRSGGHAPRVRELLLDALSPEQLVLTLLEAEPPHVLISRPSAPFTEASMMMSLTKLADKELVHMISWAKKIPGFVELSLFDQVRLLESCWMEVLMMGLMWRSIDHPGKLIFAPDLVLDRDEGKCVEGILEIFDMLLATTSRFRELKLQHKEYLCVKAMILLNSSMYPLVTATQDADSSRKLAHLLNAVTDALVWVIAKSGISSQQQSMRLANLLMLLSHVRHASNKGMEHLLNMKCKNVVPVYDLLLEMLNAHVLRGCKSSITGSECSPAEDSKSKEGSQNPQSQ
Sequence of purified full-length human ERβ (Q92731 whole entry): as above

SMILES | Agonist mode ERα (% E2) (full-length human ERα) | Agonist mode ERβ (% E2) (full-length human ERβ [1]) | Relative binding affinity (RBA) ERβ [2] | Agonist mode MCF-7 (% E2) (ERα+ MCF-7 cells) | Relative binding affinity (RBA) ERα [3] | α/β ratio ([3]; ratio of the RBA for ERα to the RBA for ERβ) | Activity profile in MCF-7 cells (in words) (ERα+ MCF-7 cells; 3xERE-luciferase, ERα-positive MCF-7 cells) | IC50 (full-length human ERβ [4]) | EC50 (full-length human ERα) | Antagonist mode ERβ (% E2) (full-length human ERβ [4])
O=S(=O)(Oc1cccc2ccccc12)C1CC2OC1C(c1ccc(O)cc1)=C2c1ccc(O)cc1 (centres unmarked) [Compound 2m] | 29 ± 1 % E2 | 1 ± 2 % E2 | 0.478 ±0.12% | −4 ± 1 % E2 | 5.03 ±1.5% | 10.52 | – | – | – | –
O=S(=O)(Oc1ccccc1)[C@H]1C[C@H]2O[C@@H]1C(c1ccc(O)cc1)=C2c1ccc(O)cc1 [Compound 1] | – | – | – | 21 ± 4 % E2 | – | – | limited agonist activity | – | – | –
O=S(=O)(Oc1ccccc1Cl)C1CC2OC1C(c1ccc(O)cc1)=C2c1ccc(O)cc1 (centres unmarked) [Compound 2b, 5,6-Bis-(4-hydroxyphenyl)-7-oxabicyclo[2.2.1]hept-5-ene-2-sulfonic Acid 2-Chlorophenyl Ester] | 29 ± 5 % E2 | 1 ± 1 % E2 | 1.76% and 1.76 ±0.13% | −7 ± 2 % E2 | 19.0% and 19.00 ±4.6% | – | – | > 10 µM | > 10 µM | –
CC/C(=C(\c1ccc(O)cc1)c1ccc(OCCN(C)C)cc1)c1ccccc1 [Compound 4-OHT, 4-hydroxytamoxifen, reference compound] | – | −1 ± 1 % E2 | – | −11 ± 1 % E2 | – | – | – | – | – | −20 ± 2 % E2
C[C@]12CC[C@@H]3c4ccc(O)cc4C[C@@H](CCCCCCCCC[S+]([O-])CCCC(F)(F)C(F)(F)F)[C@H]3[C@@H]1CC[C@@H]2O (some centres unmarked) [Faslodex, reference compound] | 1 ± 1 % E2 | – | – | −4 ± 4 % E2 | – | – | – | – | – | –
